Experiments:
[1] = system: primary patient derived AML cell cultures and established AML/CML cell lines; test: primary AML cells and AML/CML cell lines, WST-1 assay
Description: C) Primary AML cells from patient biopsies where cultured for 72 hours in presence of MYCMI-7 at indicated doses cell growth was monitored by the WST-1 assay. One representative biological experiment out of at three, performed in triplicates is shown.
Cell growth and viability assays: Cell growth and viability was estimated in triplicates with WST-1 (Roche) or Resazurin sodium salt (Sigma-Aldrich) assays in medium at 37° C. and 5% CO2 for 2 hours after which absorbance or fluorescence, respectively, was measured with an Omega Fluostar (BMG Labtech) in a 96 well plate format. Cell viability by the Cyt60 assay was carried out as in manufacturers' protocol.

[2] = system: association of MYC with the ODC1 gene promoter; test: chromatin immunoprecipitation (ChIP) of MYC at ODC1 promoter; assay type: cell-based; conditions: 5 μM
Description: (§1) FIG. 1: MYCMI-7 (Compound Example 1) inhibits the MYC:MAX interaction in cells, bind MYC in vitro, and blocks MYC function. A) Molecular structure of MYCMI-7. B-E) split Gaussia luciferase (GLuc) assay. MYC or MYCN and MAX Gluc constructs were co-transfected into HeLa cells together with a firefly luciferase vector. 24 hours post transfection cells were treated with compounds, and after another 17-24 hours cells were harvested and both GLuc and firefly luciferase activities were measured. The mean of three different experiments is shown. Treatment with: B) 5 μM of MYCMI-7, 64 μM 10058-F4 or 5 μM JQ1, respectively, C) 6.5 μM MYCMI-7 on cells expressing MYC:MAX GLuc vs. GCN4:GCN4 GLuc, D) 5 μM MYCMI-7 and 5 μM ellipticine. E) 5 μM MYCMI-7 for various time points. F) in situ proximity ligation assay (isPLA). […] MYC:GAL4 was used as negative control in the isPLA assay. G) Quantification of isPLA dots. (H) Co-immunoprecipitation (co-IP) of endogenous MYC and MAX proteins from MCF7 cells after treatment with 5 μM MYCMI-7 at various times. IP=immunoprecipitation; W=western blot. I) Chromatin immunoprecipitation (ChIP) of MYC at the ODC1 target gene promoter after treatment of cells with 5 μM MYCMI-7 for 6 hours. J) MYC target gene ODC1 expression after treatment with 5 μM MYCMI-7, quantified by qPCR. K) ChIP of MYC at the ODC promoter in MCF7 cells after 5 μM MYCMI-7 treatment for indicated time points. L) Recombinant MYC bHLHZip protein domain immobilized onto a CM5 chip was subjected to various concentrations of MYCMI-7 and the complex of MYCbHLHZip-MYCMI-7 was measured as response units by SPR. The sensogram was produced by subtracting the blank response.
For western blot equal amounts of proteins ([…]) were separated on a 4-12% SDS-PAGE gel. Proteins were transferred to Immobilion-P membrane (Millipore) and detected by immunostaining and chemoluminescence (Immobilion western HRP substrate; Millipore). For immunoprecipitations 500-1000 μg of protein was used. […] Briefly, cells were crosslinked with 1% formaldehyde on ice for 6 minutes. […]

MYCN:MAX interaction = target: T1, MYCN:MAX interaction (Homo sapiens, UniProt P04198); test: split Gaussia luciferase (GLuc) assay, MYCN:MAX; assay type: cell-based; conditions: 5 μM, HeLa cells
T1 construct: replacing the existing Zip-gene (GCN4) with full length MYC, MYCN or MAX cDNA; expressed in transfected cells; host or cells: HeLa
T1 sequence (P04198 1-464): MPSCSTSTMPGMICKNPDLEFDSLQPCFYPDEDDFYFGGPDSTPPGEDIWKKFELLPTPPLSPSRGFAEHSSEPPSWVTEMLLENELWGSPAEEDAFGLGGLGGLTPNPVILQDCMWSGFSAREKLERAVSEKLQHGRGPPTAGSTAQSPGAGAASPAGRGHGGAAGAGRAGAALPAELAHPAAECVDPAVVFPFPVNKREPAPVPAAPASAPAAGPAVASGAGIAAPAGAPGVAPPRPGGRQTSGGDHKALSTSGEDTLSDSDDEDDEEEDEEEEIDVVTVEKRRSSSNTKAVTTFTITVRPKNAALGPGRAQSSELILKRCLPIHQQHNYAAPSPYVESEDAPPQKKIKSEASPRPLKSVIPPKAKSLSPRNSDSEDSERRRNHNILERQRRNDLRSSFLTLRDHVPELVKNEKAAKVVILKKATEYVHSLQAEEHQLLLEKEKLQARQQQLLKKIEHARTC
Description: as §1, with “A)” for “FIG. 1: MYCMI-7 (Compound Example 1) inhibits the MYC:MAX interaction in cells, bind MYC in vitro, and blocks MYC function. A)”, “K) ChIP of MYC at the ODC promoter in MCF7 cells after 5 μM MYCMI-7 treatment for indicated time points.” left out, “The sensogram was produced by subtracting the blank response.” left out
0.2-0.4 μg of each GLuc-construct together with 0.05 μg pCMV-LUC (firefly luciferase) were used per transfection in 12 well plates. […] After 60 min incubation at room temperature 20 μM D-luciferin was added (substrate of Firefly luciferase) and luminescence was measured in a Lumat LB9501 (Berthold) or OmegaFluostar (BMG Labtech) luminometer. Directly after, Gaussia luciferase substrate Coelenterazine (Promega) was added to a final concentration of 20 μM in a mixture with “Stop n' Glow” (Promega) and the luciferase activity was measured. The ratio between Gaussia and Firefly luciferase values were calculated and normalized to DMSO-treated control cells.

SMILES: CCN(CC)CC[n+]1ccc2c(C)c3[nH]c4ccccc4c3c(C)c2c1 [MYCMI-7, 2-(5,11-Dimethyl-6H-25-pyrido[4,3-b]carbazol-2-yl)-N,N-diethylethanamine bromide]
- efficiency compared with 10058-F4, JQ1 and cisplatin [1]: more efficient
- GI50 ([1]; Homo sapiens): 150 to 1300 nM
- time after which reduction of MYC association with ODC1 promoter starts [2]: 2 h
- time from which MYC association with ODC1 promoter reaches a minimal level [2]: 4 h
- association of MYC with the ODC1 gene promoter (ChIP) ([2]; breast cancer cells): reduced
- inhibition of MYCN:MAX GLuc interaction (MYCN:MAX interaction): inhibited

Reference: patent publication US20250122193A1, “NOVEL PYRIDOCARBAZOLIUM COMPOUNDS AND MEDICAL USES THEREOF” (MyCural Therapeutics, priority 2021, published 2025)
